Test results published in ChEMBL document CHEMBL2346619, “Cardioprotective potential of N,α-L-rhamnopyranosyl vincosamide, an indole alkaloid, isolated from the leaves of Moringa oleifera in isoproterenol induced cardiotoxic rats: in vivo and in vitro studies” (Bioorg Med Chem Lett, 2013).
In brackets after ≈: the same amount, converted by molar mass.

Assays:
[1] = Antioxidant activity assessed as nitric oxide scavenging activity; assay type: functional
[2] = Antioxidant activity assessed as hydroxy radical scavenging activity; assay type: functional
[3] = Antioxidant activity assessed as ABTS radical scavenging activity; assay type: functional
[4] = system: Radical scavenging activity; assay: Antioxidant activity assessed as DPPH radical scavenging activity; assay type: functional
[5] = Antioxidant activity assessed as super oxide scavenging activity; assay type: functional
Rattus norvegicus [6] = assay: Effect on Wister albino rat MDA level in serum per mg of protein at 40 mg/kg, po for 7 days (reference value: 0.67 +/- 0.03 nmol/h/mg of protein); assay type: ADME, organism-based; set-up: dose 40 mg/kg, route oral; conditions: in vivo, 168 h
Rattus norvegicus [7] = assay: Effect on Wister albino rat LOOH level in serum per mg of protein at 40 mg/kg, po for 7 days (reference value: 2.90 +/- 0.74 noml/mg of protein); assay type: ADME, organism-based; set-up: dose 40 mg/kg, route oral; conditions: in vivo, 168 h
Rattus norvegicus [8] = assay: Effect on Wister albino rat SGPT level in serum at 40 mg/kg, po for 7 days (reference value: 30.25 +/- 3.17 U/L); assay type: ADME, organism-based; set-up: dose 40 mg/kg, route oral; conditions: in vivo, 168 h
Rattus norvegicus [9] = assay: Effect on Wister albino rat LDH level in serum at 40 mg/kg, po for 7 days (reference value: 29.64 +/- 6.71 IU/L); assay type: ADME, organism-based; set-up: dose 40 mg/kg, route oral; conditions: in vivo, 168 h
Rattus norvegicus [10] = assay: Effect on Wister albino rat cTnT level in serum at 40 mg/kg, po for 7 days (reference value: 0.66 +/- 0.02 ng/ml); assay type: ADME, organism-based; set-up: dose 40 mg/kg, route oral; conditions: in vivo, 168 h
Rattus norvegicus [11] = assay: Effect on Wister albino rat CK-MB level in serum at 40 mg/kg, po for 7 days (reference value: 84.68 +/- 3.67 IU/L); assay type: ADME, organism-based; set-up: dose 40 mg/kg, route oral; conditions: in vivo, 168 h
Rattus norvegicus [12] = assay: Cardioprotective effect in isoproterenol-induced Wister albino rats assessed as LOOH level in serum per mg protein at 40 mg/kg, po for 7 days (reference value: 7.67 +/- 1.07 noml/mg of protein); assay type: functional
Rattus norvegicus [13] = assay: Cardioprotective effect in isoproterenol-induced Wister albino rats assessed as MDA level in serum per mg protein at 40 mg/kg, po for 7 days (reference value: 2.76 +/- 0.39 nmol/h/mg of protein); assay type: functional
Rattus norvegicus [14] = assay: Cardioprotective effect in isoproterenol-induced Wister albino rats assessed as SGPT level in serum at 40 mg/kg, po for 7 days (reference value: 76.07 +/- 4.16 U/L); assay type: functional
Rattus norvegicus [15] = assay: Cardioprotective effect in isoproterenol-induced Wister albino rats assessed as cTnT level in serum at 40 mg/kg, po for 7 days (reference value: 1.99 +/- 0.06 ng/ml); assay type: functional
Rattus norvegicus [16] = assay: Cardioprotective effect in isoproterenol-induced Wister albino rats assessed as LDH level in serum at 40 mg/kg, po for 7 days (reference value: 216.66 +/- 12.46 IU/L); assay type: functional
Rattus norvegicus [17] = assay: Cardioprotective effect in isoproterenol-induced Wister albino rats assessed as CK-MB level in serum at 40 mg/kg, po for 7 days (reference value: 146.56 +/- 7.14 IU/L); assay type: functional
Rattus norvegicus [18] = assay: Cardioprotective effect in isoproterenol-induced Wister albino rats assessed as tissue viability with less necrotic tissue at 40 mg/kg, po for 7 days by light microscopy (reference value: 52%); assay type: functional
Rattus norvegicus [19] = assay: Effect on Wister albino rat inflammatory cells at 40 mg/kg, po by light microscopy (reference value: 0%); assay type: ADME, organism-based; set-up: dose 40 mg/kg, route oral; conditions: in vivo
Rattus norvegicus [20] = assay: Cardioprotective effect in isoproterenol-induced Wister albino rats assessed as inflammatory cells at 40 mg/kg, po for 7 days by light microscopy (reference value: 30.1%); assay type: functional
Rattus norvegicus [21] = assay: Effect on Wister albino rat tissue degradation at 40 mg/kg, po by light microscopy (reference value: 0%); assay type: ADME, organism-based; set-up: dose 40 mg/kg, route oral; conditions: in vivo
Rattus norvegicus [22] = assay: Cardioprotective effect in isoproterenol-induced Wister albino rats assessed as tissue degradation at 40 mg/kg, po for 7 days by light microscopy (reference value: 55.15%); assay type: functional
Rattus norvegicus [23] = assay: Effect on Wister albino rat heart rate elevation at 40 mg/kg, po by Electrocardiographic assay (reference value: 265 +/- 3.71 beats/mins); assay type: ADME, organism-based; set-up: dose 40 mg/kg, route oral; conditions: in vivo
Rattus norvegicus [24] = assay: Cardioprotective effect in isoproterenol-induced Wister albino rats assessed as inhibition of heart rate at 40 mg/kg, po for 7 days by Electrocardiographic assay (reference value: 430 +/- 5.16 beats/mins); assay type: functional
Rattus norvegicus [25] = assay: Effect on Wister albino rat ST-segment elevation at 40 mg/kg, po by Electrocardiographic assay (reference value: 0.157 +/- 0.003 mV); assay type: ADME, organism-based; set-up: dose 40 mg/kg, route oral; conditions: in vivo
Rattus norvegicus [26] = assay: Cardioprotective effect in isoproterenol-induced Wister albino rats assessed as inhibition of ST-segment elevation at 40 mg/kg, po for 7 days by Electrocardiographic assay (reference value: 0.390 +/- 0.015 mV); assay type: functional

IC50 [1]: 7.16 µg/mL (≈ 10.8 µM) | IC50 [2]: 4.95 µg/mL (≈ 7.49 µM) | IC50 [3]: 29.65 µg/mL (≈ 44.9 µM) | IC50 [4]: 37.76 µg/mL (≈ 57.2 µM) | IC50 [5]: 16.71 µg/mL (≈ 25.3 µM) | Activity (Rattus norvegicus [6]): 0.79 nmol/h/mg protein | Activity (Rattus norvegicus [7]): 2.62 nmol | Activity (Rattus norvegicus [8]): 22.11 U/L | Activity (Rattus norvegicus [9]): 117.34 IU/L | Activity (Rattus norvegicus [10]): 0.62 ng/mL | Activity (Rattus norvegicus [11]): 82.12 IU/L | Activity (Rattus norvegicus [19]): 0% | Activity (Rattus norvegicus [21]): 0% | Activity (Rattus norvegicus [25]): 0.14 mV
Structure (SMILES): C=C[C@H]1[C@H](O[C@@H]2O[C@H](CO)[C@@H](O)[C@H](O)[C@H]2O)OC=C2C(=O)N3CCc4c(n(O[C@@H]5O[C@@H](C)[C@H](O)[C@@H](O)[C@H]5O)c5ccccc45)[C@H]3C[C@H]21
Activity (Rattus norvegicus [12]): 4.1 nmol | Activity (Rattus norvegicus [13]): 0.99 nmol/h/mg protein | Activity (Rattus norvegicus [14]): 58.92 U/L | Activity (Rattus norvegicus [15]): 0.67 ng/mL | Activity (Rattus norvegicus [16]): 160.72 IU/L | Activity (Rattus norvegicus [17]): 92.01 IU/L | Activity (Rattus norvegicus [18]): 20% | Activity (Rattus norvegicus [20]): 0% | Activity (Rattus norvegicus [22]): 0% | Activity (Rattus norvegicus [23]): 270 bpm | Activity (Rattus norvegicus [24]): 260 bpm | Activity (Rattus norvegicus [26]): 0.22 mV
